The record followed here is publication PMC11758220, “Identification of a Privileged Scaffold for Inhibition of Sterol Transport Proteins through the Synthesis and Ring Distortion of Diverse, Pseudo-Natural Products” (ACS Central Science, 2025).

The experiment addresses T1, ORP2 (Homo sapiens, UniProt Q9H1P3).
T1 construct: ORP2(49-480); host or cells: E. coli BL21(DE3)
T1 sequence (Q9H1P3 49-480): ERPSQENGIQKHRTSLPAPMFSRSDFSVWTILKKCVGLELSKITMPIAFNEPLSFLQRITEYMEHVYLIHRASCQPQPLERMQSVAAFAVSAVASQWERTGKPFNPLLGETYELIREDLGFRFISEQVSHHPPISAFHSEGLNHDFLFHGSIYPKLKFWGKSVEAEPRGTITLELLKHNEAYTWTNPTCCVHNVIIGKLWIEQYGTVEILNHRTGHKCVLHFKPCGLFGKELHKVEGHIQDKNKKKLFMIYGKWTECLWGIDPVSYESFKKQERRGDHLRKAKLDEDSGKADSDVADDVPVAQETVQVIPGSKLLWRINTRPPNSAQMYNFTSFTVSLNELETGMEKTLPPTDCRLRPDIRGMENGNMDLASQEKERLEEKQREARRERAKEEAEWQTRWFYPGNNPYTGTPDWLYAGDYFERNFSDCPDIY
Briefly: Effect on intrinsic protein fluorescence, ORP2. Particulars: protein 1 µM, excitation 280 nm. The procedure: Effect of spirooxepinoindoles on intrinsic protein fluorescence
Figure S12: Spirooxepinoindoles 21a and 15f affect intrinsic protein fluorescence in dose-dependent fashion:
Respective proteins (1 µM) were incubated with the compounds at different doses. Proteins were excited at 280 ± 10 nm and fluorescence spectra were measured from 315 ± 20 nm to 600 ± 20 nm with a step size of 2 nm. A) STARD1 and 21a. B) ORP1 and 21a. C) ORP2 and 21a. D) ORP2 and 15f.
(1 picture or pasted object on this page, not shown here)
Superdex 75 pg (Cytiva) using an ÄKTA Explorer (Cytiva) in buffer containing 10 mM Tris -HCl, pH 8, 150 mM NaCl, 5 % glycerol and 2 mM DTT.
Fluorescence intensity and polarisation
Fluorescence intensity and polarisation (FP) experiments were performed in a buffer containing 20 mM HEPES pH 7.5, 300 mM NaCl, 0.01 %v/v Tween-20, 0.5% glycerol and 2 mM DTT in a final volume of 30 µl in black, flat-bottom, non-binding 384-well plates (Corning). All compounds were dispensed using the LabCyte Echo 550 Liquid handler. […] For competition experiments, 20 nM 22-NBD-cholesterol or 80 nM 25-NBD-cholesterol was mixed with protein and incubated with desired concentrations of screening compounds (Table S4) The fluorescence polarisation signal was measured using a Spark Cyto multimode microplate reader (Tecan) with filters set at 485 ± 20 nm for excitation and at 535 ± 20 nm for emission. […]

With `C[C@]12CC[C@@H]3C[C@H]1CC[C@@]21C(=Nc2ccc(-c4ccccc4)cc21)O3` [Compound 21a], the “Quenching of intrinsic fluorescence of ORP2” value is “dose-dependently quenches”. With `COc1ccc2c(c1)[C@@]13CC[C@@H]4C[C@@H](CC[C@@]41C)OC3=N2` [Compound 15f], the “Quenching of intrinsic fluorescence of ORP2” value is “quenches the ORP2 protein fluorescence in a dose-dependent manner”.
